The source made the active and inactive calls. The calls are words filed in the database; no cut-off is given here.
Legend:
[1] = biological target: T1, 5-hydroxytryptamine receptor 2C (Homo sapiens, UniProt P28335); assay type: cell-based, HEK293
T1 sequence (P28335 whole entry): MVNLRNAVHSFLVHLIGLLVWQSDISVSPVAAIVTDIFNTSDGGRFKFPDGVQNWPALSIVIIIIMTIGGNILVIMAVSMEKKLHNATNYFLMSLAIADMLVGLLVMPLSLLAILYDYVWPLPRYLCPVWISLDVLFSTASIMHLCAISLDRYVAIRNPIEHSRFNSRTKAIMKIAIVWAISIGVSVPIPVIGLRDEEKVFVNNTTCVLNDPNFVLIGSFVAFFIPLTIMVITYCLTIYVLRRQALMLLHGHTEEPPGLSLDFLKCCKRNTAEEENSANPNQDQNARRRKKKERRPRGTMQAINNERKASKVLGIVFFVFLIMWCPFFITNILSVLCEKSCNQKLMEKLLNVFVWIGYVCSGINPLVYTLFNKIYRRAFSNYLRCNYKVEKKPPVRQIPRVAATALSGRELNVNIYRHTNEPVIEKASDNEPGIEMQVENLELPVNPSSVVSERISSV

[2] = Cmax in Sprague-Dawley rat at 10 mg/kg, po; assay type: ADME, organism-based; design: dose 10 mg/kg, route oral; conditions: in vivo
[3] = AUClast in Sprague-Dawley rat at 10 mg/kg, po; assay type: ADME, organism-based; design: time 0 - last, dose 10 mg/kg, route oral; conditions: plasma
[4] = Total clearance in Sprague-Dawley rat at 2 mg/kg, iv; assay type: ADME, organism-based; design: dose 2 mg/kg, route intravenous; conditions: in vivo
[5] = Drug level in Sprague-Dawley rat brain at 0.3 mg/kg, po after 0.75 hrs; assay type: ADME, organism-based; design: dose 0.3 mg/kg, route oral; conditions: read-out: Drug uptake
[6] = Drug level in Sprague-Dawley rat plasma at 0.3 mg/kg, po after 0.75 hrs; assay type: ADME, organism-based; design: dose 0.3 mg/kg, route oral; conditions: read-out: Drug uptake
[7] = Ratio of drug level in brain to plasma in Sprague-Dawley rat at 3 mg/kg, po after 0.75 hrs; assay type: ADME, organism-based; design: dose 3 mg/kg, route oral
[8] = Ratio of drug level in brain to plasma in Sprague-Dawley rat at 0.3 mg/kg, po after 0.75 hrs; assay type: ADME, organism-based; design: dose 0.3 mg/kg, route oral
Rattus norvegicus [9] = test: Inhibition of DOI-induced hypolocomotion in Sprague-Dawley rat at 0.3 mg/kg, po administered 25 mins before DOI challenge measured after 10 mins; assay type: functional, organism-based; design: dose 0.3 mg/kg
Cytochrome P450 1A2 = biological target: T2, Cytochrome P450 1A2 (Homo sapiens, UniProt P05177); test: Inhibition of CYP1A2 in human liver microsomes; assay type: ADME, Microsome
T2 sequence (P05177 whole entry): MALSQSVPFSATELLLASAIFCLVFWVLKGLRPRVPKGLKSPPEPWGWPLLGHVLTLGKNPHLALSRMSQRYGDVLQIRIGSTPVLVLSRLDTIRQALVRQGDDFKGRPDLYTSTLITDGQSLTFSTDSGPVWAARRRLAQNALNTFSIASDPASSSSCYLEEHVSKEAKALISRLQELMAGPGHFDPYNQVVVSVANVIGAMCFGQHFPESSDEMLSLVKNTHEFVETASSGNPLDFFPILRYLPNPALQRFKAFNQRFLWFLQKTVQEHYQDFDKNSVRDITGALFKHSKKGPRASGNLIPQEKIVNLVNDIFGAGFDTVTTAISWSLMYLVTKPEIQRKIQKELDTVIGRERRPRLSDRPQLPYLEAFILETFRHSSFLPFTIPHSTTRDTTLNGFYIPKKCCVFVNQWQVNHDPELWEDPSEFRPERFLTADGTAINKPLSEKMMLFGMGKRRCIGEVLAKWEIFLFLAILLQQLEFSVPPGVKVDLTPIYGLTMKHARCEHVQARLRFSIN

Cytochrome P450 2C9 = Cytochrome P450 2C9 (Homo sapiens, UniProt P11712); test: Inhibition of CYP2C9 in human liver microsomes; assay type: ADME, Microsome
Cytochrome P450 2C19 = Cytochrome P450 2C19 (Homo sapiens, UniProt P33261); test: Inhibition of CYP2C19 in human liver microsomes; assay type: ADME, Microsome
Cytochrome P450 2D6 = Cytochrome P450 2D6 (Homo sapiens, UniProt P10635); test: Inhibition of CYP2D6 in human liver microsomes; assay type: ADME, Microsome
Cytochrome P450 3A4 = Cytochrome P450 3A4 (Homo sapiens, UniProt P08684); test: Inhibition of CYP3A4 in human liver microsomes; assay type: ADME, Microsome
Rattus norvegicus [10] = test: Effect on behavioral activity in Sprague-Dawley rat assessed as increase in deep sleep at 0.1 mg/kg, po after 1 hr; assay type: functional, organism-based; design: dose 0.1 mg/kg
Rattus norvegicus [11] = test: Effect on behavioral activity in Sprague-Dawley rat assessed as increase in deep sleep at 0.1 mg/kg, po after 3 to 4 hrs; assay type: functional, organism-based; design: dose 0.1 mg/kg
Rattus norvegicus [12] = test: Effect on behavioral activity in po dosed Sprague-Dawley rat assessed as increase in sleep consolidation after 5 hrs; assay type: functional, organism-based
[13] = biological target: 5-hydroxytryptamine receptor 2A (Macaca mulatta, UniProt P50128); test: Binding affinity to monkey 5HT2A receptor
[14] = biological target: 5-hydroxytryptamine receptor 2A (Canis lupus familiaris, UniProt O46635); test: Binding affinity to dog 5HT2A receptor
[15] = biological target: 5-hydroxytryptamine receptor 2A (Rattus norvegicus, UniProt P14842); test: Binding affinity to rat 5HT2A receptor
[16] = Protein binding in dog plasma; assay type: ADME, cell-free, Canis lupus familiaris; conditions: read-out: PPB (converted)
[17] = Protein binding in rat plasma; assay type: ADME, cell-free; conditions: read-out: PPB (converted)
[18] = Cmax in mouse at 3 mg/kg, po; assay type: ADME, organism-based; design: dose 3 mg/kg, route oral; conditions: in vivo
[19] = AUClast in mouse at 3 mg/kg, po; assay type: ADME, organism-based; design: time 0 - last, dose 3 mg/kg, route oral; conditions: plasma
[20] = Half life in mouse at 3 mg/kg, po; assay type: ADME, organism-based; design: dose 3 mg/kg, route oral; conditions: in vivo
[21] = Total clearance in mouse at 2 mg/kg, iv; assay type: ADME, organism-based; design: dose 2 mg/kg, route intravenous; conditions: in vivo
Mus musculus [22] = test: Volume of distribution at steady state in mouse at 3 mg/kg, po; assay type: ADME, organism-based; design: dose 3 mg/kg, route oral; conditions: in vivo
[23] = Oral bioavailability in mouse at 3 mg/kg relative to 2 mg/kg, iv dose; assay type: ADME, organism-based; conditions: in vivo
[24] = Half life in Sprague-Dawley rat at 3 mg/kg, po; assay type: ADME, organism-based; design: dose 3 mg/kg, route oral; conditions: in vivo
Rattus norvegicus [25] = test: Volume of distribution at steady state in Sprague-Dawley rat at 3 mg/kg, po; assay type: ADME, organism-based; design: dose 3 mg/kg, route oral; conditions: in vivo
[26] = Oral bioavailability in Sprague-Dawley rat at 3 mg/kg relative to 2 mg/kg, iv dose; assay type: ADME, organism-based; conditions: in vivo
[27] = Cmax in dog at 3 mg/kg, po; assay type: ADME, organism-based, Canis lupus familiaris; design: dose 3 mg/kg, route oral; conditions: in vivo
[28] = AUClast in dog at 3 mg/kg, po; assay type: ADME, organism-based, Canis lupus familiaris; design: dose 3 mg/kg, route oral, time 0 - last; conditions: plasma
[29] = Half life in dog at 3 mg/kg, po; assay type: ADME, organism-based, Canis lupus familiaris; design: dose 3 mg/kg, route oral; conditions: in vivo
[30] = Total clearance in dog at 2 mg/kg, iv; assay type: ADME, organism-based, Canis lupus familiaris; design: dose 2 mg/kg, route intravenous; conditions: in vivo
Canis familiaris [31] = test: Volume of distribution at steady state in dog at 3 mg/kg, po; assay type: ADME, organism-based, Canis lupus familiaris; design: dose 3 mg/kg, route oral; conditions: in vivo
[32] = Oral bioavailability in dog at 3 mg/kg relative to 2 mg/kg, iv dose; assay type: ADME, organism-based, Canis lupus familiaris; conditions: in vivo
[33] = Cmax in monkey at 3 mg/kg, po; assay type: ADME, organism-based, Macaca mulatta; design: dose 3 mg/kg, route oral; conditions: rhesus monkey, in vivo
[34] = AUClast in monkey at 3 mg/kg, po; assay type: ADME, organism-based, Macaca mulatta; design: time 0 - last, dose 3 mg/kg, route oral; conditions: rhesus monkey, plasma
[35] = Half life in monkey at 3 mg/kg, po; assay type: ADME, organism-based, Macaca mulatta; design: dose 3 mg/kg, route oral; conditions: rhesus monkey, in vivo
[36] = Total clearance in monkey at 2 mg/kg, iv; assay type: ADME, organism-based, Macaca mulatta; design: dose 2 mg/kg, route intravenous; conditions: rhesus monkey, in vivo
Rhesus monkey = test: Volume of distribution at steady state in monkey at 3 mg/kg, po; assay type: ADME, organism-based, Macaca mulatta; design: dose 3 mg/kg, route oral; conditions: in vivo
[37] = Oral bioavailability in monkey at 3 mg/kg relative to 2 mg/kg, iv dose; assay type: ADME, organism-based, Macaca mulatta; conditions: rhesus monkey, in vivo
[38] = Toxicity in mouse assessed as maximum tolerated dose; assay type: organism-based; conditions: in vivo
[39] = Toxicity in rat assessed as maximum tolerated dose; assay type: organism-based; conditions: in vivo
Mus musculus [40] = test: Toxicity in mouse assessed as reduction in locomotor activity at 300 mg/kg by rotarod test; assay type: organism-based; design: dose 300 mg/kg; conditions: in vivo
Rattus norvegicus [41] = test: Toxicity in rat assessed as reduction in locomotor activity at 300 mg/kg by rotarod test; assay type: organism-based; design: dose 300 mg/kg; conditions: in vivo
Canis familiaris [42] = test: Toxicity in telemeterized dog assessed as effect on hemodynamics at 10 to 30 mg/kg; assay type: organism-based, Canis lupus familiaris; design: dose 10-30 mg/kg; conditions: in vivo
Rattus norvegicus [43] = test: Toxicity in telemeterized rats assessed as effect on hemodynamics at 10 to 30 mg/kg; assay type: organism-based; design: dose 10-30 mg/kg; conditions: in vivo
Canis familiaris [44] = test: Cardiotoxicity in telemeterized dog assessed as change in ECG parameter at 10 to 30 mg/kg; assay type: toxicity, organism-based, Canis lupus familiaris; design: dose 10-30 mg/kg; conditions: in vivo
Rattus norvegicus [45] = test: Cardiotoxicity in telemeterized rat assessed as change in ECG parameter at 10 to 30 mg/kg; assay type: toxicity, organism-based; design: dose 10-30 mg/kg; conditions: in vivo
[46] = biological target: Voltage-gated inwardly rectifying potassium channel KCNH2 (Homo sapiens, UniProt Q12809)
Description: Inhibition of human ERG by patch clamp electrophysiology assay

[47] = biological target: 5-hydroxytryptamine receptor 2A (Homo sapiens, UniProt P28223); test: biochemical
Chain of 5-hydroxytryptamine receptor 2A (Homo sapiens, UniProt P28223) (P28223 whole entry): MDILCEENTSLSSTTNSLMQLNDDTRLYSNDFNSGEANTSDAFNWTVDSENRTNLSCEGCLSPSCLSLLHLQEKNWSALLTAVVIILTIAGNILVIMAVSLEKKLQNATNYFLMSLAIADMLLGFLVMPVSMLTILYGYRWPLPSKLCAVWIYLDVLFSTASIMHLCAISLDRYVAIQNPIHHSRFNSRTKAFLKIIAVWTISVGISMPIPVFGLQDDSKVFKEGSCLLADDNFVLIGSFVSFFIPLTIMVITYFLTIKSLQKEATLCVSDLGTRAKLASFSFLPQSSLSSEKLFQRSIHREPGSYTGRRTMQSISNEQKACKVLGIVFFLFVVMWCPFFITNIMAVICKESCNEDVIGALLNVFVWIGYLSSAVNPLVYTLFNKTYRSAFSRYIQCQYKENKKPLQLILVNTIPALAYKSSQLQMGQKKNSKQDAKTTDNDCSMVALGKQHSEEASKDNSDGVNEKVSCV
Description: Displacement of [125I]DOI from human recombinant 5HT2A receptor expressed in HEK293 cells after 1 hr by scintillation counting

Chain of Cytochrome P450 2C9 (P11712 whole entry): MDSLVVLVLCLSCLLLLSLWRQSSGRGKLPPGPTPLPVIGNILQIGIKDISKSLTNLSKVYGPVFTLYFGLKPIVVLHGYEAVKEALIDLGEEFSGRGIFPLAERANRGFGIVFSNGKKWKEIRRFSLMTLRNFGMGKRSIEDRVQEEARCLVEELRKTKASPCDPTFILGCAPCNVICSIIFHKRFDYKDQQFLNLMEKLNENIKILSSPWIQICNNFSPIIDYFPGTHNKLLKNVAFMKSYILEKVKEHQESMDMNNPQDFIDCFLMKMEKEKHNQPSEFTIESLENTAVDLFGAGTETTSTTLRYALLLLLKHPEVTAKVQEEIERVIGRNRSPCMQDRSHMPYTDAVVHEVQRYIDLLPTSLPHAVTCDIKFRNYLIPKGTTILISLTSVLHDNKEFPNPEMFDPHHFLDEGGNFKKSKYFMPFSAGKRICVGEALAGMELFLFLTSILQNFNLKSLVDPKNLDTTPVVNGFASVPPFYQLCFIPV
Chain of Cytochrome P450 3A4 (P08684 whole entry): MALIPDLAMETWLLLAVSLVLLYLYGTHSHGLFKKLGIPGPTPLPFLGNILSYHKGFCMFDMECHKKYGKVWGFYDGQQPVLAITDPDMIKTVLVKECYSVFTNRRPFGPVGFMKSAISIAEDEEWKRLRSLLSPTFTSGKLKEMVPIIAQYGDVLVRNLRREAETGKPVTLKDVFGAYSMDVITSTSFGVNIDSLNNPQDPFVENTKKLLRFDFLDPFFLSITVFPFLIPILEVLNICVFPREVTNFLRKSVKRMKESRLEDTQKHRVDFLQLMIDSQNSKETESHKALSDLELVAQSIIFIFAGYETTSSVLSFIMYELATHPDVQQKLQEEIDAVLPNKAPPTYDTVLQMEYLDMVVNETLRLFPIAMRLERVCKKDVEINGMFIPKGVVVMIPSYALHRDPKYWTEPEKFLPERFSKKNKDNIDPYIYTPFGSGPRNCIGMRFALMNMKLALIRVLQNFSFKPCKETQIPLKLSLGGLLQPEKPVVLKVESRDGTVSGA
Chain of Voltage-gated inwardly rectifying potassium channel KCNH2 (Q12809 whole entry): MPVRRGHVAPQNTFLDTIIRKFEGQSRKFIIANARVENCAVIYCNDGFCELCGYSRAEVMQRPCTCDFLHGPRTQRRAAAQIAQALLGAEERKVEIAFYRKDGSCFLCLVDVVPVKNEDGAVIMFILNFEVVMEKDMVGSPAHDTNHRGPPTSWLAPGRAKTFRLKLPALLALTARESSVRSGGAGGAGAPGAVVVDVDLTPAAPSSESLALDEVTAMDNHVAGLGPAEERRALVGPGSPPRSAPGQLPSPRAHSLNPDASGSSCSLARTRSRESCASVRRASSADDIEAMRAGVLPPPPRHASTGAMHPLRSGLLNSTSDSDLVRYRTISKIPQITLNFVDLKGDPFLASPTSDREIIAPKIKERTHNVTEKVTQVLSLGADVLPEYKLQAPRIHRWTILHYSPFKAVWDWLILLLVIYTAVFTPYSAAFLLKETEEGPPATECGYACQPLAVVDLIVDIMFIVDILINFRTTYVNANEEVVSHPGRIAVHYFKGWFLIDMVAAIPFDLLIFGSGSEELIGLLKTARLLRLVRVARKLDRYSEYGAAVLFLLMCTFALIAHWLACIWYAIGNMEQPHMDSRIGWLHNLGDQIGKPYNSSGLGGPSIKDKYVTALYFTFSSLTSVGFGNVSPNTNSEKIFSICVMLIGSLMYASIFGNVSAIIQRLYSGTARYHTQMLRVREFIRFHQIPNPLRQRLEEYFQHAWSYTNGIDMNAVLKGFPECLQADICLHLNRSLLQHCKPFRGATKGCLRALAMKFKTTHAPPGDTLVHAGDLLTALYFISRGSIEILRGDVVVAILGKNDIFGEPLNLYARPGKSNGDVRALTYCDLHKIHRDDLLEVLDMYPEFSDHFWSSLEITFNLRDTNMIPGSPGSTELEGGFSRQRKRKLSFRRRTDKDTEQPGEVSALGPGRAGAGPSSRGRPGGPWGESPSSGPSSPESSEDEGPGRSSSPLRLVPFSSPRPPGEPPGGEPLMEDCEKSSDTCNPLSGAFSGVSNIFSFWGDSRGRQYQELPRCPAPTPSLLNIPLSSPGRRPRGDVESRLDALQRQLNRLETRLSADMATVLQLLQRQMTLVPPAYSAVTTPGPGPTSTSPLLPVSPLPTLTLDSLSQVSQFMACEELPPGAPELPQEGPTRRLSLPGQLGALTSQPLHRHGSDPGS
Chain of 5-hydroxytryptamine receptor 2A (Macaca mulatta, UniProt P50128) (P50128 whole entry): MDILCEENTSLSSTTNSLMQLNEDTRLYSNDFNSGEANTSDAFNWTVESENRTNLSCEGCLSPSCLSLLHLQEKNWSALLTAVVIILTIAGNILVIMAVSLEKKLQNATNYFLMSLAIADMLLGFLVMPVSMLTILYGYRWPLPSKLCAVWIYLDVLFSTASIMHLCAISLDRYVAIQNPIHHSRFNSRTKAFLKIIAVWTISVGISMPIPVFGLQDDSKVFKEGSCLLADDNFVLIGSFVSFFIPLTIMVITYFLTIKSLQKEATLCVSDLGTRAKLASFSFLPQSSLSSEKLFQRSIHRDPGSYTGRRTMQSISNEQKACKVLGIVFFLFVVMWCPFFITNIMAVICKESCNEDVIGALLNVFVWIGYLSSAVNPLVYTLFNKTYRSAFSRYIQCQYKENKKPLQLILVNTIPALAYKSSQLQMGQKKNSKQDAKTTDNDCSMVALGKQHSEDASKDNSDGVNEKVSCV
Chain of Cytochrome P450 2D6 (P10635 whole entry): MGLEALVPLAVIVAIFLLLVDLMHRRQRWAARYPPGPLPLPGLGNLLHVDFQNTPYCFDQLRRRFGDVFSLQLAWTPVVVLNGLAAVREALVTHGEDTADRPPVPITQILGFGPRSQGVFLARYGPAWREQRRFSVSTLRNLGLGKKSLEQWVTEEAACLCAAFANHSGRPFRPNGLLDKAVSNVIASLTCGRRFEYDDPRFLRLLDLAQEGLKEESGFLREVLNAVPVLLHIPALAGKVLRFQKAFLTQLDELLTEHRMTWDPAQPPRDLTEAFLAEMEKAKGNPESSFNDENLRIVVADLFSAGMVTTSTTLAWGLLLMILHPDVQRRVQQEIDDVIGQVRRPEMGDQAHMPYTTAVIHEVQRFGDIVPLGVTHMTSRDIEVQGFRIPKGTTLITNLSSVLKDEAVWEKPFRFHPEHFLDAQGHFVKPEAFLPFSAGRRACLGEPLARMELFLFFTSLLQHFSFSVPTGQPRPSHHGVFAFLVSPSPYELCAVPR
Chain of Cytochrome P450 2C19 (P33261 whole entry): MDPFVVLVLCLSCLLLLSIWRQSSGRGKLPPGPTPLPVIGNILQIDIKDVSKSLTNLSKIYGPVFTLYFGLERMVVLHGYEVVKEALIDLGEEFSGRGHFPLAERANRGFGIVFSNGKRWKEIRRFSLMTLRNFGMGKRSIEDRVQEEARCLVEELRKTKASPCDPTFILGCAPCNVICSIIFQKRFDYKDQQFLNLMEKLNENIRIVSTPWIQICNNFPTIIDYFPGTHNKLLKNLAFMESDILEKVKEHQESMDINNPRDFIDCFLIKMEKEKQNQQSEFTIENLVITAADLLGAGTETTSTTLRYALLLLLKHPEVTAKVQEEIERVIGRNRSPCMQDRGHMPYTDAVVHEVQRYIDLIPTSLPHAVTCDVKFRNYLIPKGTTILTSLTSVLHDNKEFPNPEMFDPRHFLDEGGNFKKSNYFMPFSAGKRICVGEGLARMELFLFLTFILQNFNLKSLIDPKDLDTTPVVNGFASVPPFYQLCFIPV
Chain of 5-hydroxytryptamine receptor 2A (Rattus norvegicus, UniProt P14842) (P14842 whole entry): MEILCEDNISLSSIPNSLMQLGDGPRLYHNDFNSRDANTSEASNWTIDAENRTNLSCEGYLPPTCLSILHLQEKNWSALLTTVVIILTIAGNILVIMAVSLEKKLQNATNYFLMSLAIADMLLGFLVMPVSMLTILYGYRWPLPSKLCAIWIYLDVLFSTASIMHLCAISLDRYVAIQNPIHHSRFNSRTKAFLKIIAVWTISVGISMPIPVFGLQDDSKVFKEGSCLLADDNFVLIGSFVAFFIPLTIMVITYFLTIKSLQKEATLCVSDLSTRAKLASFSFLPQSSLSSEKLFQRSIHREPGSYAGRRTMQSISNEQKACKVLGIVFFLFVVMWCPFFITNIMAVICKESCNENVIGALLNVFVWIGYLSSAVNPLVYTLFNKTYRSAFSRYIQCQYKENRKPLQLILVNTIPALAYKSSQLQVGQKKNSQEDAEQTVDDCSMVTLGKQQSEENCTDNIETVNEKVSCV
Chain of 5-hydroxytryptamine receptor 2A (Canis lupus familiaris, UniProt O46635) (O46635 whole entry): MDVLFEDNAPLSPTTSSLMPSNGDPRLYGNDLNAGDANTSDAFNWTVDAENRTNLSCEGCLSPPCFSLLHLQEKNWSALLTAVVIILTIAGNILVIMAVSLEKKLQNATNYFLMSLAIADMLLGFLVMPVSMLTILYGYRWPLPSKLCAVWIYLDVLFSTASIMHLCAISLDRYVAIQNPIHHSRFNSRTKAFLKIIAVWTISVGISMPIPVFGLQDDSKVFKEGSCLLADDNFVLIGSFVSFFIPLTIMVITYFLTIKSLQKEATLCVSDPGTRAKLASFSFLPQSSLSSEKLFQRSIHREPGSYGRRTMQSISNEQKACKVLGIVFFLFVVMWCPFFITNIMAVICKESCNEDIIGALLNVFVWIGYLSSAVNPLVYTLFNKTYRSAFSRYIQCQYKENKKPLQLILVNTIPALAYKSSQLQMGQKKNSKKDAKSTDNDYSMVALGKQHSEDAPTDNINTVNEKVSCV

`Cn1cc(Cl)c(C(=O)N2CCN(CC(=O)c3ccc(F)cc3)CC2)n1` showed a Ki [1] of 1410 nM, a Cmax [2] of 1040 ng/mL and an AUC(0-t) [3] of 1180 ng·h/mL. The clearance [4] was 93.3 mL/min/kg, the concentration at 0.75 h [5] was 23.3 ng/mL and the concentration at 0.75 h [6] was 19.6 ng/mL. For the same molecule, the Kp at 0.75 h [7] was 1.18, the Kp at 0.75 h [8] was 1.18 and the inhibition (Rattus norvegicus [9]) was “Active”. For the same molecule, the “inhibition (INH)” value (Cytochrome P450 1A2) was “Not Active”, the “inhibition (INH)” value (Cytochrome P450 2C9) was “Not Active” and the “inhibition (INH)” value (Cytochrome P450 2C19) was “Not Active”. For the same molecule, the “inhibition (INH)” value (Cytochrome P450 2D6) was “Not Active”, the “inhibition (INH)” value (Cytochrome P450 3A4) was “Not Active” and the Activity (Rattus norvegicus [10]) was “Active”. The Activity (Rattus norvegicus [11]) was “Active”, the Activity (Rattus norvegicus [12]) was “Dose-dependent effect” and the Ki [13] was 1.7 nM. The Ki [14] was 2.7 nM, the Ki [15] was 2.4 nM and the fraction unbound [16] was 0.39. The fraction unbound [17] was 0.49, the Cmax [18] was 718 ng/mL and the AUC(0-t) [19] was 459 ng·h/mL. It also gave a half-life [20] of 0.5 h, a clearance [21] of 93.3 mL/min/kg and a Vdss (Mus musculus [22]) of 1.7 L/kg. For the same molecule, the bioavailability [23] was 87%, the half-life [24] was 2 h and the Vdss (Rattus norvegicus [25]) was 1.7 L/kg. For the same molecule, the bioavailability [26] was 67%, the Cmax [27] was 1260 ng/mL and the AUC(0-t) [28] was 2940 ng·h/mL. The half-life [29] was 5.2 h, the clearance [30] was 15 mL/min/kg and the Vdss (Canis familiaris [31]) was 1.9 L/kg. For the same molecule, the bioavailability [32] was 94%, the Cmax [33] was 600 ng/mL and the AUC(0-t) [34] was 872 ng·h/mL. It also gave a half-life [35] of 0.6 h, a clearance [36] of 15 mL/min/kg and a Vdss (Rhesus monkey) of 0.4 L/kg. The bioavailability [37] was 26%, the MTD [38] was 300 mg/kg and the MTD [39] was 300 mg/kg. The Activity (Mus musculus [40]) was “Toxic”, the Activity (Rattus norvegicus [41]) was “Toxic” and the Activity (Canis familiaris [42]) was “Non-toxic”. For the same molecule, the Activity (Rattus norvegicus [43]) was “Non-toxic”, the Activity (Canis familiaris [44]) was “Non-toxic” and the Activity (Rattus norvegicus [45]) was “Non-toxic”. It also gave an IC50 [46] of 30000 nM and a Ki [47] of 3.7 nM.
